Assay results published in patent publication US20040122001A1, “Pharmaceutical compounds” (priority 2000, published 2004).

melting point	Compound
184 to 185.6 °C	Fc1ccc2c(C3=CCN(CCC4OCCc5cc(Br)ccc54)CC3)c[nH]c2c1 (stereo not shown)
121 to 125 °C	CNC(=O)c1ccc2c(c1)CCCN2CCN1CC=C(c2c[nH]c3cc(F)ccc23)CC1
130 to 133 °C	NC(=O)c1ccc2c(c1)CCCN2CCN1CC=C(c2c[nH]c3cc(F)ccc23)CC1
136 to 140 °C	O=C(NCCO)c1ccc2c(c1)CCCN2CCN1CC=C(c2c[nH]c3cc(F)ccc23)CC1
